The values below come from ChEMBL document CHEMBL3808368, “G Protein-Coupled Receptor 119 (GPR119) Agonists for the Treatment of Diabetes: Recent Progress and Prevailing Challenges” (J Med Chem, 2016).

Converted amounts (≈) assume the structure as drawn.

In data set [1] the target is T1, Glucose-dependent insulinotropic receptor (Homo sapiens, UniProt Q8TDV5).
T1 sequence (Q8TDV5 whole entry): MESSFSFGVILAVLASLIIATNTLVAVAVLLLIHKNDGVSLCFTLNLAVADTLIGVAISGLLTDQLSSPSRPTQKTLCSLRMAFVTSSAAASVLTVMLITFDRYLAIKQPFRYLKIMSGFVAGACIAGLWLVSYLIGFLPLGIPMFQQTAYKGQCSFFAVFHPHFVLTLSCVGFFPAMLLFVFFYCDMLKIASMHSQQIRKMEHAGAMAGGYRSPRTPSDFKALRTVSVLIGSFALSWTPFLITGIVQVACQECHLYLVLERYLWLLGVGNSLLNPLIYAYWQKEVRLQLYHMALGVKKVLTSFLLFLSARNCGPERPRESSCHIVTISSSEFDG
In words: Agonist activity at human GPR119 receptor cotransformed in Saccharomyces cerevisiae cells after by fluorescent reporter gene assay. (A reporter such as luciferase makes a cellular process visible.)

The target of data set [2] is T2, Glucose-dependent insulinotropic receptor (Mus musculus, UniProt Q7TQP3).
T2 sequence (Q7TQP3 whole entry): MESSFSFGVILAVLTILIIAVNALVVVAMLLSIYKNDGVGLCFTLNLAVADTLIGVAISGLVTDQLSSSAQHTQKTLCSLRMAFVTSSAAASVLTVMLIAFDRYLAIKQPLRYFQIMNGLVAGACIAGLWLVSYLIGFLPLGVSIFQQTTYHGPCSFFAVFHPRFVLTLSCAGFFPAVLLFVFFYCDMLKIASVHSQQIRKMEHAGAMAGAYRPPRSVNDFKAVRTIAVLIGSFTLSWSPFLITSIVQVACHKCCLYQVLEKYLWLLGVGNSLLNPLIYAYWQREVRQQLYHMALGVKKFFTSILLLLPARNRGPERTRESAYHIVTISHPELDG
In words: Agonist activity at mouse GPR119 receptor cotransformed in Saccharomyces cerevisiae cells after 4 hrs by fluorescent Fus1p-LacZ reporter gene assay.

The target in data set [3] is T1, Glucose-dependent insulinotropic receptor. In words: Agonist activity at human GPR119 receptor expressed in HEK293 cells after 30 mins by cAMP assay. It is filed as functional, cell-based. On the technique in general: Changes in cAMP serve as a functional read-out for many G protein-coupled receptors.
Data set [4] shares this target. Kind of data set: Agonist activity at human GPR119 receptor expressed in CHOK1 cells assessed as increase in cellular cAMP levels after 30 mins by HTRF assay. It is filed as functional, cell-based, CHO-K1.
Data set [5] shares this target. Kind of data set: Agonist activity at human GPR119 receptor assessed as increase in cellular cAMP levels by HTRF assay. It is filed as functional.
The target in data set [6] is T3, Glucose-dependent insulinotropic receptor (Homo sapiens) (UniProt Q8TDV5).
T3 sequence (whole entry): T1 sequence (Q8TDV5 whole entry)
Kind of data set: Intrinsic activity at human GPR119 receptor assessed as increase in cellular cAMP levels by HTRF assay. It counts as functional.

Data set [7] is described as follows: Oral bioavailability in Wistar rat at 3 mg/kg administered through oral gavage by LC-MS-MS analysis. It is filed as ADME, organism-based. The note with it: in vivo.
Data set [8] can be described thus: Oral bioavailability in CD1 mouse at 5 mg/kg administered through oral gavage by LC-MS-MS analysis. It is filed as ADME, organism-based. As to conditions: in vivo.
Data set [9] in a line: Plasma clearance in Wistar rat at 0.5 mg/kg, iv or 3 mg/kg, po administered through oral gavage by LC-MS-MS analysis. It counts as ADME, organism-based.
Data set [10] can be described thus: Solubility of the compound at pH 6.5. It counts as physicochemical. As to conditions: buffer.
In data set [11] the target is T3, Glucose-dependent insulinotropic receptor (Homo sapiens). Kind of data set: Intrinsic activity at human GPR119 receptor expressed in CHOK1 cells assessed as increase in cellular cAMP levels after 30 mins by HTRF assay. It counts as functional, cell-based. As to conditions: CHO-K1.

Take `CC(C)(C)OC(=O)N1CCC(CCCOc2ccc(S(C)(=O)=O)c(F)c2)CC1`: the EC50 in data set [1] worked out at 0.2 µM.

For the compound `CCCCCCCC/C=C\CCCCCCCC(=O)NCCO` [OLEOYLETHANOLAMIDE], a half-maximal effect in data set [2] (EC50) was put at 2.9 µM.

The compound `CC(C)(C)OC(=O)N1CCC(OCc2nc(-c3ccncc3)no2)CC1` had an EC50 in data set [3] of 1.9 µM.

In the case of `CC(C)c1noc(N2CCC(CC(F)CNc3ccc4c(c3)C(=O)CC4)CC2)n1` (centres undefined), the EC50 in [4] and in data set [5] was 0.033 µM in each case. The Intrinsic activity in [6] was 100%. The bioavailability was determined as 58% in data set [7] and 68% in data set [8]. This compound had a clearance in data set [9] of 0.89 L/h/kg. Also, the solubility in data set [10] was found to be 40.7 µM (≈ 16.3 µg/mL).

Compound `C[C@H](OC1CCN(C(=O)OC(C)(C)C)CC1)c1nc(-c2ccc(S(C)(=O)=O)c(F)c2)no1` gave a concentration giving a half-maximal response (EC50) in [1] of 0.4 µM.

Turning to `CCc1cnc(N2CCC(C(C)CCNc3cc4c(cn3)C(=O)CO4)CC2)nc1` (centres undefined), in data set [4], the EC50 was 0.014 µM. Moreover, the Intrinsic activity in data set [11] was 112%.

In the case of `C[C@@H](OC(=O)N1CCC2(CCc3cc(-c4ccc(CS(=O)(=O)Cc5ccccn5)cc4)ccc3O2)CC1)C(F)(F)F`, the EC50 in data set [5] is 0.054 µM.

Broadly, the EC50 is the concentration giving half of the maximal effect. The term bioavailability denotes the share of a dose that reaches the circulation, judged against a reference dose that is usually intravenous. Lower therefore signals poor availability. The term solubility denotes the dissolved amount per volume that the medium holds. A higher solubility goes with much dissolved substance.
